This assay addresses DYRK1A (HT-497, 6×His tagged rat truncated DYRK1A isoform X1 residues 1-497) (Rattus norvegicus (Rat), UniProt Q63470). Description: DYRK1A ELISA assay (HT-PRD phosphorylation). The following applies: 100 µM ATP, 5 ng HT-497, 30 min at 30° C. The class given is biochemical. As to the method: Compounds of Table 1, above, were examined in vitro for activity against DYRK1A, DYRK1B, DYRK2 via an ELISA assay.
DYRK1A assay. […] After blocking, wells were washed extensively with dilution buffer before subjecting to phosphorylation. […] At the end point, wells were washed with ˜350 μl dilution buffer three times to terminate the reaction. […] Each point was run in quadruplicate with DMSO present in all assays at 0.2% final concentration. […] HT-PRD phosphorylation was subsequently determined by the sandwich antibody staining protocol, first with 100 μl mouse mAb 3D3 specific for detecting DYRK1A-phosphorylated PRD (60 min at room temperature) then with 100 μl alkaline phosphatase (AP)-linked anti-mouse secondary antibody (60 min at room temperature), followed by colorimetric reaction with 100 μl PNPP solution (PNPP substrate tablet, Thermo Fisher). […] The readings were then recorded for subsequent IC50 calculation. The DYRK1A assay protocol can also support DYRK1B and DYRK2 phosphorylation reactions in the enzyme concentration-dependent manner; therefore, the method was adapted for measuring the activity of candidate compounds against DYRK1B and DYRK2. For DYRK2, the reactions were performed as described above with 6 ng HT-DYRK2 (6×His tagged full-length human DYRK2 isoform 1). For DYRK1B, the assays were also similarly conducted but with 70 ng GST-DYRK1B (glutathione S-transferase tagged full length human DYRK1B isoform p65) and an extended kinase reaction time of 60 min.
Dilution factors for both mAb 3D3 and secondary antibody were pre-determined for each batch of antibody to ensure that neither antibody was limiting in the assay.
Data transformation, calculation, plotting, curve fitting, and IC 50 calculation were performed in KaleidaGraph (http://www.synergy.com/wordpress_650164087; Mac version 4.1). Data was corrected for background (readings from wells with only PNPP) before subsequent manipulations. […] The resulting residual activity was then plotted against its corresponding inhibitor concentrations in semi-log graph and the plot was fit to the sigmoidal equation, y=a+(b−a)/(1+(x/c)^d), for IC50 calculation.
The term IC50 denotes the concentration needed to halve the response being measured. In the case of `O=C(O[C@H]1Cc2c(O)cc(O)cc2O[C@@H]1c1cc(O)c(O)c(O)c1)c1ccc(F)c(F)c1` [Compound 24, (2R,3S)-5,7-dihydroxy-2-(3,4,5-trihydroxyphenyl)chroman-3-yl 3,4-difluorobenzoate], the IC50 was greater than 1000 nM.
Under `O=C(O[C@@H]1Cc2c(O)cc(O)cc2O[C@H]1c1cc(O)c(O)c(O)c1)[C@H]1CC[C@H](O)CC1` [Compound 44, (2S,3R)-5,7-dihydroxy-2-(3,4,5-trihydroxyphenyl)chroman-3-yl (1r,4R)-4-hydroxycyclohexane-1-carboxylate] stands greater than 1000 nM; under `O=C(O[C@@H]1Cc2c(O)cc(O)cc2O[C@H]1c1cc(O)c(O)c(O)c1)c1cc(OC(F)F)c(O)c(O)c1F` [Compound 65, (2S,3R)-5,7-dihydroxy-2-(3,4,5-trihydroxyphenyl)chroman-3-yl 5-(difluoromethoxy)-2-fluoro-3,4-dihydroxybenzoate], greater than 100 nM.
Under `COc1c(O)c(O)c(F)c(C(=O)O[C@@H]2Cc3c(O)cc(O)cc3O[C@H]2c2ccc(O)c(O)c2)c1F` [Compound 64, (2S,3R)-2-(3,4-dihydroxyphenyl)-5,7-dihydroxychroman-3-yl 2,6-difluoro-3,4-dihydroxy-5-methoxybenzoate] stands greater than 100 nM; under `O=C(O[C@H]1Cc2c(O)cc(O)cc2O[C@@H]1c1cc(O)c(O)c(O)c1)c1cnc(O)c(O)c1` [Compound 27, (2R,3S)-5,7-dihydroxy-2-(3,4,5-trihydroxyphenyl)chroman-3-yl 5,6-dihydroxynicotinate], greater than 100 nM; under `CC(C)C(=O)Oc1c(O)cc(C(=O)O[C@@H]2Cc3c(O)cc(O)cc3O[C@@H]2c2cc(O)c(O)c(O)c2)cc1O` [Compound 14, (2R,3R)-5,7-dihydroxy-2-(3,4,5-trihydroxyphenyl)chroman-3-yl 3,5-dihydroxy-4-(isobutyryloxy)benzoate], greater than 100 nM.
On to `O=C(O[C@H]1Cc2c(O)cc(O)cc2O[C@@H]1c1cc(O)c(O)c(O)c1)c1ccc(O)cc1` [Compound 20, (2R,3S)-5,7-dihydroxy-2-(3,4,5-trihydroxyphenyl)chroman-3-yl 4-hydroxybenzoate], for which the IC50 is greater than 1000 nM.
To `O=C(O[C@@H]1Cc2c(O)cc(O)cc2O[C@H]1c1cc(O)c(O)c(O)c1)[C@H]1CC[C@@H](O)CC1` [Compound 43, (2S,3R)-5,7-dihydroxy-2-(3,4,5-trihydroxyphenyl)chroman-3-yl (1s,4S)-4-hydroxycyclohexane-1-carboxylate] belongs greater than 1000 nM; to `O=C(O[C@@H]1Cc2c(O)cc(O)cc2O[C@@H]1c1ccc(O)c(O)c1)c1cc(O)c(O)c(O)c1` [Compound 6, (2R,3R)-2-(3,4-dihydroxyphenyl)-5,7-dihydroxychroman-3-yl 3,4,5-trihydroxybenzoate], greater than 100 nM; to `O=C(O[C@@H]1Cc2c(O)cc(O)cc2O[C@@H]1c1cc(O)c(O)c(O)c1)c1ccc(F)c(F)c1` [Compound 25, (2R,3R)-5,7-dihydroxy-2-(3,4,5-trihydroxyphenyl)chroman-3-yl 3,4-difluorobenzoate], greater than 1000 nM.
Under `CS(=O)(=O)Nc1ccc(C(=O)O[C@H]2Cc3c(O)cc(O)cc3O[C@@H]2c2ccc(O)c(O)c2)cc1O` [Compound 30, (2R,3S)-2-(3,4-dihydroxyphenyl)-5,7-dihydroxychroman-3-yl 3-hydroxy-4-(methylsulfonamido)benzoate] stands greater than 1000 nM; under `CCNC(=O)Oc1c(O)cc(C(=O)O[C@@H]2Cc3c(O)cc(O)cc3O[C@@H]2c2cc(O)c(O)c(O)c2)cc1O` [Compound 13, (2R,3R)-5,7-dihydroxy-2-(3,4,5-trihydroxyphenyl)chroman-3-yl 4-((ethylcarbamoyl)oxy)-3,5-dihydroxybenzoate], greater than 1000 nM.
Regarding `Nc1ccc(C(=O)O[C@@H]2Cc3c(O)cc(O)cc3O[C@H]2c2cc(O)c(O)c(O)c2)cc1O` [Compound 35, (2S,3R)-5,7-dihydroxy-2-(3,4,5-trihydroxyphenyl)chroman-3-yl 4-amino-3-hydroxybenzoate], the IC50 is greater than 1000 nM.
Under `Nc1ncc(C(=O)O[C@H]2Cc3c(O)cc(O)cc3O[C@@H]2c2ccc(O)c(O)c2)cc1O` [Compound 29, (2R,3S)-2-(3,4-dihydroxyphenyl)-5,7-dihydroxychroman-3-yl 6-amino-5-hydroxynicotinate] stands greater than 1000 nM.
To `O=C(O[C@@H]1Cc2c(O)cc(O)cc2O[C@H]1c1cc(O)c(O)c(O)c1)c1ccc(O)c(O)c1O` [Compound 38, (2S,3R)-5,7-dihydroxy-2-(3,4,5-trihydroxyphenyl)chroman-3-yl 2,3,4-trihydroxybenzoate] belongs greater than 100 nM; to `CCCCCC(=O)Oc1cc(O)c2c(c1)O[C@H](c1cc(O)c(O)c(O)c1)[C@H](OC(=O)c1cc(O)c(O)c(O)c1)C2` [Compound 71, (2R,3R)-7-(hexanoyloxy)-5-hydroxy-2-(3,4,5-trihydroxyphenyl)chroman-3-yl 3,4,5-trihydroxybenzoate], greater than 100 nM.
As to `O=C(O[C@H]1Cc2c(O)cc(O)cc2O[C@@H]1c1cc(O)c(O)c(O)c1)c1ccc(O)c(O)c1` [Compound 19, (2R,3S)-5,7-dihydroxy-2-(3,4,5-trihydroxyphenyl)chroman-3-yl 3,4-dihydroxybenzoate], the IC50 is greater than 100 nM.
Under `O=C(N[C@H]1Cc2c(O)cc(O)cc2O[C@@H]1c1cc(O)c(O)c(O)c1)c1ccc(O)c(O)c1` [Compound 15, N-((2R,3S)-5,7-dihydroxy-2-(3,4,5-trihydroxyphenyl)chroman-3-yl)-3,4-dihydroxybenzamide] stands greater than 1000 nM.
To `COc1cc(C(=O)O[C@H]2Cc3c(O)cc(O)cc3O[C@@H]2c2cc(O)c(O)c(O)c2)cc(O)c1O` [Compound 18, (2R,3S)-5,7-dihydroxy-2-(3,4,5-trihydroxyphenyl)chroman-3-yl 3,4-dihydroxy-5-methoxybenzoate] belongs greater than 100 nM; to `CC(C)Oc1c(O)c(O)c(F)c(C(=O)O[C@@H]2Cc3c(O)cc(O)cc3O[C@H]2c2cc(O)c(O)c(O)c2)c1F` [Compound 61, (2S,3R)-5,7-dihydroxy-2-(3,4,5-trihydroxyphenyl)chroman-3-yl 2,6-difluoro-3,4-dihydroxy-5-isopropoxybenzoate], greater than 100 nM; to `COc1c(O)c(O)c(F)c(C(=O)O[C@@H]2Cc3c(O)cc(O)cc3O[C@H]2c2cc(O)c(O)c(O)c2)c1F` [Compound 59, (2S,3R)-5,7-dihydroxy-2-(3,4,5-trihydroxyphenyl)chroman-3-yl 2,6-difluoro-3,4-dihydroxy-5-methoxybenzoate], greater than 100 nM.
Regarding `O=C(O[C@@H]1Cc2c(O)cc(O)cc2O[C@H]1c1cc(O)c(O)c(O)c1)c1cc(O)c(O)c(F)c1` [Compound 66, (2S,3R)-5,7-dihydroxy-2-(3,4,5-trihydroxyphenyl)chroman-3-yl 3-fluoro-4,5-dihydroxybenzoate], the IC50 was greater than 100 nM.
To `O=C(O[C@@H]1Cc2c(O)cc(O)cc2O[C@H]1c1ccc(O)c(O)c1)c1ccc(O)c(O)c1` [Compound 31, (2S,3R)-2-(3,4-dihydroxyphenyl)-5,7-dihydroxychroman-3-yl 3,4-dihydroxybenzoate] belongs greater than 100 nM; to `COc1cc([C@@H]2Oc3cc(O)cc(O)c3C[C@H]2OC(=O)c2cc(O)c(O)c(O)c2F)cc(O)c1O` [Compound 49, (2S,3R)-2-(3,4-dihydroxy-5-methoxyphenyl)-5,7-dihydroxychroman-3-yl 2-fluoro-3,4,5-trihydroxybenzoate], greater than 100 nM; to `COc1cc(C(=O)O[C@@H]2Cc3c(O)cc(O)cc3O[C@@H]2c2cc(O)c(O)c(O)c2)cc(O)c1O` [Compound 8, (2R,3R)-5,7-dihydroxy-2-(3,4,5-trihydroxyphenyl)chroman-3-yl 3,4-dihydroxy-5-methoxybenzoate], greater than 100 nM.
To `O=C(O[C@@H]1Cc2cccc(O)c2C[C@H]1c1cc(O)c(O)c(O)c1)c1cc(O)c(O)c(O)c1` [Compound 33, (2R,3S)-5-hydroxy-3-(3,4,5-trihydroxyphenyl)-1,2,3,4-tetrahydronaphthalen-2-yl 3,4,5-trihydroxybenzoate] belongs greater than 100 nM.
For the molecule `O=C(N[C@H]1Cc2c(O)cc(O)cc2O[C@@H]1c1cc(O)c(O)c(O)c1)c1ccc(F)c(F)c1` [Compound 17, N-((2R,3S)-5,7-dihydroxy-2-(3,4,5-trihydroxyphenyl)chroman-3-yl)-3,4-difluorobenzamide], the concentration for half-maximal inhibition (IC50) was greater than 1000 nM.
Under `CCC(=O)Oc1cc(O)c2c(c1)O[C@H](c1cc(O)c(O)c(O)c1)[C@H](OC(=O)c1cc(O)c(O)c(O)c1)C2` [Compound 69, (2R,3R)-5-hydroxy-7-(propionyloxy)-2-(3,4,5-trihydroxyphenyl)chroman-3-yl 3,4,5-trihydroxybenzoate] stands greater than 100 nM.

The record behind these values is patent publication US20240336588A1, “COMPOSITIONS AND METHODS FOR ANTIOXIDANT AND ANTI-INFLAMMATORY THERAPEUTICS” (AVANTI BIOSCIENCES INC., priority 2021, published 2024).
